According to US20240082128A1, “COMPOSITION FOR USE IN DEGRADATION OF BIOFILM OR PREVENTION OF BIOFILM FORMATION” (Pharmiva AB, priority 2021, published 2024):
“Also recorded” adds a separate entry of the source.

Key:
[1] = Viscosity of polymer gel used as biofilm extracellular matrix proxi (degradation); details: 10 g formulation added to gel, viscosity up to 24 hours
Description: Three different gels were used in the study reported in Example 2 below: 2% natrosol gel, 2% alginate gel and 6% pectin gel. FeSO4 (10 mM) was added to the gels during manufacturing and acts as a catalysator and by mimic oxidation potential in biological fluids.
The alginate and Natrosol gel were manufactured by adding sodium Alginate/Natrosol to the water solution containing FeSO4, during stirring. The pectin gel was manufactured by heating the water to 80° C. and add pectin as well as FeSO4 during stirring. After manufacture, 6 glass vials (60 mL) were filled with 40 mL of the gel.
In general, biofilms consist of polymers consisting of polysaccharides, most commonly alginates, extracellular proteins, DNA and small amounts of surfactants and lipid. In this experiment, commercially available polymers were used as proxi (i.e. a measurement of one physical quantity (polymer) as an indicator of the value of another (biofilm)) to model the extracellular matrix of biofilm. […]
For each test, following method was used: First, viscosity of the pure gel was measured. […] Viscosity was measured immediately before addition of the formulation or composition, immediately after addition of the formulation or composition, 10 min, 1 hour and 24 hours addition of the formulation or composition. […]

biofilm = details: for one hour; cited from earlier work
microorganisms = details: 5 nM hydrogen peroxide (endogenous stress); cited from earlier work
Candida = details: cited from earlier work
Gardnerella vaginalis = details: cited from earlier work
Lactobacillus = details: used for treatment of bacterial vaginosis; cited from earlier work
[2] = tested on: Candida albicans (ATCC 90028) biofilm; experiment: Biofilm biomass removal, crystal violet staining assay; type: cell-based; details: C. albicans
Description: (§1) Gardnerella vaginalis (ATCC® 14018™) and Candida albicans (ATCC® 90028™) were grown on microtiter plates for 48 h at 37° C.±2° C. before being rinsed with PBS to remove planktonic cells. Thereafter the biofilms of the two microorganisms were exposed to the bulk cream and its components (as well as clinical comparators Metronidazole gel and Monistat 7) for 24 h at 37° C.±2° C. The efficacy of formulations in removing biofilm biomass of G. vaginalis and C. albicans was assessed using a crystal violet staining assay and the efficacy of formulations to decrease biofilm viability of G. vaginalis and C. albicans was assessed by plate count method.

[3] = tested on: Gardnerella vaginalis (ATCC 14018) biofilm; experiment: as above; type: cell-based; details: G. vaginalis
Description: as §1

[4] = tested on: Candida albicans (ATCC 90028) biofilm; experiment: Biofilm viability, plate count method; type: cell-based; details: C. albicans; 48 h biofilm exposed 24 h at 37° C.; mean ± SD
Description: as §1

[5] = tested on: Gardnerella vaginalis (ATCC 14018) biofilm; experiment: Biofilm viability, plate count method; type: cell-based; details: G. vaginalis
Description: as §1

[6] = 48 h biofilm exposed 24 h at 37° C.
[7] = 48 h biofilm exposed 24 h at 37° C., mean ± SD, n = 3

lactic acid [0.3% lactic acid solution with 0.7% NaOH]
Decrease in viscosity of polymer gel with time (polymer degradation) ([1]; Alginate gel, FIGS. 1B, 2B): viscosity decrease was observed over time
Decrease in viscosity of polymer gel with time (polymer degradation) ([1]; Natrosol gel, FIGS. 1A, 2A): viscosity decrease was observed over time

OO [hydrogen peroxide]
Concentration needed as sole agent to reduce the amount of biofilm by 85% (biofilm): 0.5 % w/w
Effect on biofilm formation (microorganisms): biofilm formation was promoted

CCCCCCCCCCCC(=O)OCC(O)CO (stereo not shown) [glycerol monolaurate]
Inhibitory effect (Candida): inhibitory effect
Inhibitory effect (Gardnerella vaginalis): inhibitory effect
Influence on Lactobacillus count (Lactobacillus): does not influence Lactobacillus count

OO [0.3% H2O2 aq. sol., hydrogen peroxide]
Removal of biofilm biomass (in words) ([2]; 24 hours incubation, FIG. 3A): efficiently remove biomass
Biofilm forming potential [2, 6]: Medium
Biofilm biomass, optical density at 570 nm [2, 7]: 0.46 ± 0.11
Removal of biofilm biomass (in words) ([3]; 24 hours incubation, FIG. 3B, listed as 0.3% H2O2 solution): efficiently diminish the biofilm biomass; also recorded: efficiently remove biomass
Biofilm forming potential [3, 6]: Low/no
Biofilm biomass, optical density at 570 nm [3, 7]: 0.27 ± 0.002
Biofilm viability [4]: 2.90 ± 0.130 Log10 CFU/mL
Biofilm viability ([5]; 48 h biofilm exposed 24 h at 37° C., mean ± SD): 2.47 ± 0.119 Log10 CFU/mL
Decrease of biofilm viability (in words) ([5]; FIG. 4B): efficiently decrease the viability
